Test results as given in ChEMBL document CHEMBL1130087, “Phosphodiester amidates of unsaturated nucleoside analogues: synthesis and anti-HIV activity” (J Med Chem, 1997).

Assays:
[1] = tested on: liver esterase; assay: Half-life catalyzed by Pig Liver Esterase; assay type: ADME, Sus scrofa
[2] = tested on: ATH-8 cell line; assay: tested for cytotoxicity of HIV-1 replication in ATH-8 cells; assay type: functional, Homo sapiens
[3] = target: Human immunodeficiency virus 1; assay: tested for its anti-HIV activity.

Structure (SMILES): COC(=O)C(C)NP(=O)(OC/C=C/Cn1cnc2c(N)ncnc21)Oc1ccccc1 (configuration not stated)
- half-life [1]: 57.1 h
- Cytotoxicity [2]: >10 µM

Structure (SMILES): COC(=O)C(C)NP(=O)(OC/C=C\Cn1cnc2c(O)ncnc21)Oc1ccccc1 (configuration not stated)
- half-life [1]: 58.3 h

Structure (SMILES): COC(=O)C(C)NP(=O)(OCC=C=Cn1cnc2c(N)ncnc21)Oc1ccccc1 (configuration not stated)
- half-life [1]: 7.3 h

Structure (SMILES): Nc1ncnc2c1ncn2C/C=C/CCOCP(=O)(O)O
- EC50 [3]: 9 µM

Structure (SMILES): COC(=O)C(C)NP(=O)(OC/C=C\Cn1cnc2c(N)ncnc21)Oc1ccccc1 (configuration not stated)
- half-life [1]: 43.5 h

Structure (SMILES): COC(=O)C(C)NP(=O)(OCC=C=Cn1cnc2c(O)ncnc21)Oc1ccccc1 (configuration not stated)
- half-life [1]: 8.5 h
